The values below come from PubChem BioAssay (NCI).

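Following 48 hours of exposure in 96-well plates, responses at five concentrations were used to interpolate endpoints linearly. Definition used: TGI = concentration required for complete inhibition of growth.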

Among the test systems are SW-620 colon; SNB-75 CNS; OVCAR-5 ovarian; OVCAR-3 ovarian; 786-0 renal; HCT-116 colon; SF-539 CNS; M14 melanoma; HCC-2998 colon.
What all share (experiment): DTP human tumour cell line panel, 48 h

The term TGI denotes the concentration giving total growth inhibition. Low readings indicate more potent growth arrest, high ones less potent growth arrest. In the case of `C#CCNC(=O)ON1C(=O)CCC1=O`, the TGI with SW-620 colon, in the test with SNB-75 CNS, in the test on OVCAR-5 ovarian, with OVCAR-3 ovarian, in the test with 786-0 renal and in the test with HCT-116 colon was greater than 100 µM each time. Also, the total growth inhibition concentration (TGI) in the test with SF-539 CNS was greater than 100 µM.

Take `CN(C)/C=N\c1ccnc(=O)[nH]1`: the TGI in the test on SW-620 colon, with SNB-75 CNS, with M14 melanoma, with OVCAR-5 ovarian, with OVCAR-3 ovarian and in the test on 786-0 renal was greater than 100 µM throughout. The concentration for total growth inhibition (TGI) with HCT-116 colon and with SF-539 CNS was greater than 100 µM in each case.

For the compound `N#C/C(=C\c1cccc(O)c1O)C(N)=O`, the TGI in the test on SW-620 colon is greater than 100 µM; with SNB-75 CNS it was 47.2 µM; in the test with M14 melanoma it was greater than 100 µM; in the test on OVCAR-5 ovarian it was greater than 100 µM; with OVCAR-3 ovarian, greater than 100 µM; in the test on 786-0 renal, greater than 100 µM. The figures for the concentration for total growth inhibition (TGI) in the test on HCC-2998 colon, with HCT-116 colon and in the test with SF-539 CNS were 46.9 µM, greater than 100 µM and greater than 100 µM, respectively.

For the compound `Cc1c(C(=O)/C=C/C=C/c2ccccc2)[n+](=O)c2ccccc2n1[O-]`, the total growth inhibition concentration (TGI) is greater than 100 µM in the test on SW-620 colon; greater than 100 µM with SNB-75 CNS; 45.9 µM with M14 melanoma; greater than 100 µM in the test on OVCAR-5 ovarian; 83.3 µM with OVCAR-3 ovarian; 52.7 µM in the test with 786-0 renal. Besides, the total growth inhibition concentration (TGI) in the test on HCC-2998 colon was 36.7 µM; with SF-539 CNS it was greater than 100 µM.

For `Cl/C(N=Nc1ccccc1)=N/Nc1ccccc1`, the TGI with SW-620 colon, with OVCAR-5 ovarian, in the test on 786-0 renal, in the test with HCC-2998 colon, in the test with HCT-116 colon and in the test on SF-539 CNS was greater than 100 µM throughout.

As for `COc1ccc(OC(C(=O)O)C(C)C)c2c1CCCC2=O` (stereo not given), the TGI with SW-620 colon, in the test with M14 melanoma, in the test with OVCAR-5 ovarian, with OVCAR-3 ovarian, in the test on 786-0 renal and with HCC-2998 colon was greater than 100 µM each time. In addition, the TGI in the test with HCT-116 colon and with SF-539 CNS was greater than 100 µM in each case.

With `O=C1OC(c2ccccc2)=N/C1=C\c1ccc(Oc2ccc(Cl)c(Cl)c2)cc1`, the concentration for total growth inhibition (TGI) in the test on SW-620 colon, in the test with M14 melanoma, in the test with OVCAR-5 ovarian, in the test on 786-0 renal, in the test on HCC-2998 colon and with HCT-116 colon was greater than 100 µM throughout. Also, in the test on SF-539 CNS, the TGI is 58.4 µM.

On to `O=C(O)c1cc(=O)c2c([nH]c3ccccc32)s1`, for which the TGI in the test on SW-620 colon, in the test with SNB-75 CNS, in the test on M14 melanoma, in the test with OVCAR-5 ovarian, in the test with OVCAR-3 ovarian and in the test with 786-0 renal was greater than 100 µM throughout. The total growth inhibition concentration (TGI) in the test on HCC-2998 colon was greater than 100 µM.

As to `C[Si](C)(C)C(CCCCSc1ccccc1)(Sc1ccccc1)Sc1ccccc1`, the concentration for total growth inhibition (TGI) in the test with SW-620 colon, in the test on SNB-75 CNS, with 786-0 renal, with HCC-2998 colon, in the test on HCT-116 colon and in the test with SF-539 CNS was greater than 100 µM each time.

Consider `Cc1ccc(S(=O)(=O)N=NC=C2c3ccccc3N(O)c3ccccc32)cc1`, for which the TGI with SW-620 colon was determined as 14.7 µM; in the test with SNB-75 CNS it was 10.4 µM; with M14 melanoma, 23.2 µM; in the test on OVCAR-5 ovarian, 27.8 µM; in the test on OVCAR-3 ovarian, 30 µM; with 786-0 renal, 7.36 µM. In addition, the TGI with HCC-2998 colon turned out to be 21.6 µM; with HCT-116 colon it was 1.94 µM.

Consider `NNc1cnn(-c2ccccc2)c(=O)c1Cl`, for which the TGI in the test with SW-620 colon, in the test with SNB-75 CNS, with M14 melanoma, in the test with OVCAR-5 ovarian, in the test on OVCAR-3 ovarian and in the test on 786-0 renal was greater than 100 µM each time. The TGI in the test on HCT-116 colon and with SF-539 CNS was greater than 100 µM each time.

For `CCOC(=O)CN(Cn1cncn1)Cn1cncn1`, the TGI was 60 µM in the test on SW-620 colon; 91 µM with SNB-75 CNS; greater than 100 µM with OVCAR-5 ovarian; 51.8 µM with OVCAR-3 ovarian; greater than 100 µM with 786-0 renal; greater than 100 µM with HCC-2998 colon. Moreover, the total growth inhibition concentration (TGI) with HCT-116 colon was greater than 100 µM.

As to `COC(=O)C1C(=O)CC2CCCCC21` (stereo not given), the TGI in the test with SW-620 colon, with SNB-75 CNS, in the test on M14 melanoma, in the test with OVCAR-3 ovarian, in the test with 786-0 renal and in the test on HCC-2998 colon was greater than 100 µM each time. The TGI with HCT-116 colon and in the test on SF-539 CNS was greater than 100 µM throughout.

Regarding `O=c1cccccc1NCCCCCCCNc1cccccc1=O`, the total growth inhibition concentration (TGI) in the test with SW-620 colon is greater than 100 µM; in the test with SNB-75 CNS, greater than 100 µM; in the test with M14 melanoma, 74.6 µM; with OVCAR-5 ovarian, greater than 100 µM; in the test on OVCAR-3 ovarian, greater than 100 µM; in the test with 786-0 renal, greater than 100 µM. The TGI in the test on HCT-116 colon and with SF-539 CNS was greater than 100 µM throughout.
